Data reported in patent publication US20090156577A1, “7-AMINO ALKYLIDENYL-HETEROCYCLIC QUINOLONES AND NAPHTHYRIDONES” (priority 2004, published 2009).
Converted amounts (≈) assume the structure as drawn. Read-outs that look alike come from different tables or passages of the source.

System: pathogenic bacteria
Assay: MIC by microdilution broth method (NCCLS M7-A4), in vitro antibacterial activity
Format: cell-based
Outline: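 Broth microdilution per NCCLS M7-A4: two-fold serial dilutions in cation-adjusted Mueller-Hinton broth, inoculum about 5×10^4 CFU/well. Trays incubated 16–20 h at 35 °C. MIC read by comparing growth against no-compound growth controls.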

[1] = Staphylococcus aureus, Organism A: Staphylococcus aureus OC4172, read-out: MIC
[2] = Streptococcus pneumoniae, ATCC49619, Organism E: Streptococcus pneumoniae ATCC 49619, read-out: MIC
[3] = Streptococcus pneumoniae, Organism C: fluoroquinolone-resistant clinical isolate of Streptococcus pneumoniae (QRDR amino acid substitutions)
[4] = Streptococcus pneumoniae, Organism D: fluoroquinolone-resistant clinical isolate of Streptococcus pneumoniae (QRDR amino acid substitutions)
[5] = Streptococcus pneumoniae, Organism B: fluoroquinolone-resistant clinical isolate of Streptococcus pneumoniae (QRDR amino acid substitutions)

SMILES | MIC [1] | MIC [2] | MIC [3] | MIC [4] | MIC [5]
CNC/C(F)=C1/CCCN(c2c(F)cc3c(=O)c(C(=O)O)cn(C4CC4)c3c2OC)C1.Cl [Compound 453, (E)-1-Cyclopropyl-6-fluoro-7-[3-(1-fluoro-2-methylamino-ethylidene)-piperidin-1-yl]-8-methoxy-4-oxo-1,4-dihydro-quinoline-3-carboxylic Acid Hydrochloride Salt] | 0.06 µg/mL | 0.25 µg/mL | 4 µg/mL | 2 µg/mL | –
COc1c(N2CCC(=C(Cl)CN)CC2)c(F)c(C)c2c(=O)c(C(=O)O)cn(C3CC3)c12 [Compound 455, 7-[4-(2-Amino-1-chloro-ethylidene)-piperidin-1-yl]-1-cyclopropyl-6-fluoro-8-methoxy-5-methyl-4-oxo-1,4-dihydro-quinoline-3-carboxylic Acid] | ≤ 0.015 µg/mL | 0.25 µg/mL (≈ 0.556 µM) | 2 µg/mL (≈ 4.45 µM) | 1 µg/mL (≈ 2.22 µM) | 0.12 µg/mL (≈ 0.267 µM)
NC/C(F)=C1/CCCN(c2c(F)c(N)c3c(=O)c(C(=O)O)cn(C4CC4)c3c2F)C1 [Compound 456, 5-Amino-7-[(E)-3-(2-amino-1-fluoro-ethylidene)-piperidin-1-yl]-1-cyclopropyl-6,8-difluoro-4-oxo-1,4-dihydro-quinoline-3-carboxylic Acid] | ≤ 0.015 µg/mL | 0.03 µg/mL (≈ 0.071 µM) | 0.12 µg/mL (≈ 0.284 µM) | 0.12 µg/mL (≈ 0.284 µM) | 0.06 µg/mL (≈ 0.142 µM)
NC/C(F)=C1/CCCN(c2c(F)cc3c(=O)c(C(=O)O)cn(C4CC4)c3c2OCF)C1 [Compound 457, 7-[(E)-3-(2-Amino-1-fluoro-ethylidene)-piperidin-1-yl]-1-cyclopropyl-6-fluoro-8-fluoromethoxy-4-oxo-1,4-dihydro-quinoline-3-carboxylic Acid] | 0.25 µg/mL (≈ 0.572 µM) | 1 µg/mL (≈ 2.29 µM) | 8 µg/mL (≈ 18.3 µM) | 4 µg/mL (≈ 9.14 µM) | 2 µg/mL (≈ 4.57 µM)
COc1c(N2CCC/C(=C(\F)CN)C2)c(F)c(C)c2c(=O)c(C(=O)O)cn(C3CC3)c12 [Compound 458, 7-[(E)-3-(2-Amino-1-fluoro-ethylidene)-piperidin-1-yl]-1-cyclopropyl-6-fluoro-8-methoxy-5-methyl-4-oxo-1,4-dihydro-quinoline-3-carboxylic Acid] | ≤ 0.015 µg/mL | 0.06 µg/mL (≈ 0.138 µM) | 0.25 µg/mL (≈ 0.577 µM) | 0.25 µg/mL (≈ 0.577 µM) | 0.03 µg/mL (≈ 0.0692 µM)
Cc1c(N2CCC/C(=C(\F)CN)C2)c(F)cc2c(=O)c(C(=O)O)cn(C3CC3)c12 [Compound 459, 7-[(E)-3-(2-Amino-1-fluoro-ethylidene)-piperidin-1-yl]-1-cyclopropyl-6-fluoro-8-methyl-4-oxo-1,4-dihydro-quinoline-3-carboxylic Acid] | ≤ 0.015 µg/mL | 0.06 µg/mL (≈ 0.149 µM) | 0.25 µg/mL (≈ 0.62 µM) | 0.12 µg/mL (≈ 0.297 µM) | –
COc1c(N2CCC(=C(F)CCN)CC2)c(F)cc2c(=O)c(C(=O)O)cn(C3CC3)c12 [Compound 467, 7-{4-[3-Amino-1-fluoro-propylidene]-piperidin-1-yl}-1-cyclopropyl-6-fluoro-8-methoxy-4-oxo-1,4-dihydro-quinoline-3-carboxylic Acid] | 0.12 µg/mL (≈ 0.277 µM) | 0.5 µg/mL (≈ 1.15 µM) | 4 µg/mL (≈ 9.23 µM) | 1 µg/mL (≈ 2.31 µM) | 0.5 µg/mL (≈ 1.15 µM)
C[C@H]1COc2c(N3CCC/C(=C(/F)CN)CC3)c(F)cc3c(=O)c(C(=O)O)cn1c23 [Compound 491, (3S)-9-[(Z)-4-(2-Amino-1-fluoro-ethylidene)-azepan-1-yl]-8-fluoro-3-methyl-6-oxo-2,3-dihydro-6H-1-oxa-3a-aza-phenalene-5-carboxylic Acid] | 0.12 µg/mL (≈ 0.286 µM) | 1 µg/mL (≈ 2.38 µM) | 8 µg/mL (≈ 19.1 µM) | 16 µg/mL (≈ 38.1 µM) | –
C[C@H]1COc2c(N3CCC/C(=C(\F)CN)CC3)c(F)cc3c(=O)c(C(=O)O)cn1c23 [Compound 492, (3S)-9-[(E)-4-(2-Amino-1-fluoro-ethylidene)-azepan-1-yl]-8-fluoro-3-methyl-6-oxo-2,3-dihydro-6H-1-oxa-3a-aza-phenalene-5-carboxylic Acid] | 0.06 µg/mL (≈ 0.143 µM) | 0.25 µg/mL (≈ 0.596 µM) | 4 µg/mL (≈ 9.54 µM) | 8 µg/mL (≈ 19.1 µM) | –
C[C@H]1COc2c(N3CCOC/C(=C(\F)CN)C3)c(F)cc3c(=O)c(C(=O)O)cn1c23 [Compound 493, 9-[(Z)-6-(2-Amino-1-fluoro-ethylidene)-[1,4]oxazepan-4-yl]-8-fluoro-(3S)-3-methyl-6-oxo-2,3-dihydro-6H-1-oxa-3a-aza-phenalene-5-carboxylic Acid] | 0.06 µg/mL (≈ 0.142 µM) | 0.5 µg/mL (≈ 1.19 µM) | > 16 µg/mL | 1 µg/mL (≈ 2.37 µM) | –
C[C@H]1COc2c(N3CCOC/C(=C(/F)CN)C3)c(F)cc3c(=O)c(C(=O)O)cn1c23 [Compound 494, 9-[(E)-6-(2-Amino-1-fluoro-ethylidene)-[1,4]oxazepan-4-yl]-8-fluoro-(3S)-3-methyl-6-oxo-2,3-dihydro-6H-1-oxa-3a-aza-phenalene-5-carboxylic Acid] | 1 µg/mL (≈ 2.37 µM) | 8 µg/mL (≈ 19 µM) | > 16 µg/mL | > 16 µg/mL | –
NC/C(F)=C1\CCCN(c2nc3c(cc2F)c(=O)c(C(=O)O)cn3C2CC2)CC1 [Compound 495, (Z)-7-[4-(2-Amino-1-fluoro-ethylidene)-azepan-1-yl]-1-cyclopropyl-6-fluoro-4-oxo-1,4-dihydro-[1,8]naphthyridine-3-carboxylic acid] | 0.25 µg/mL (≈ 0.618 µM) | 1 µg/mL (≈ 2.47 µM) | 2 µg/mL (≈ 4.95 µM) | – | –
NC/C(F)=C1/CCCN(c2nc3c(cc2F)c(=O)c(C(=O)O)cn3C2CC2)CC1 [Compound 496, (E)-7-[4-(2-Amino-1-fluoro-ethylidene)-azepan-1-yl]-1-cyclopropyl-6-fluoro-4-oxo-1,4-dihydro-[1,8]naphthyridine-3-carboxylic acid] | 0.25 µg/mL (≈ 0.618 µM) | 1 µg/mL (≈ 2.47 µM) | 0.25 µg/mL (≈ 0.618 µM) | 16 µg/mL (≈ 39.6 µM) | –
NC/C(F)=C1/COCCN(c2nc3c(cc2F)c(=O)c(C(=O)O)cn3C2CC2)C1 [Compound 497, (Z)-7-[6-(2-Amino-1-fluoro-ethylidene)-[1,4]oxazepan-4-yl]-1-cyclopropyl-6-fluoro-4-oxo-1,4-dihydro-[1,8]naphthyridine-3-carboxylic acid] | 1 µg/mL (≈ 2.46 µM) | 4 µg/mL (≈ 9.84 µM) | > 16 µg/mL | > 16 µg/mL | > 1 µg/mL
NC/C(F)=C1\COCCN(c2nc3c(cc2F)c(=O)c(C(=O)O)cn3C2CC2)C1 [Compound 498, (E)-7-[6-(2-Amino-1-fluoro-ethylidene)-[1,4]oxazepan-4-yl]-1-cyclopropyl-6-fluoro-4-oxo-1,4-dihydro-[1,8]naphthyridine-3-carboxylic acid] | 1 µg/mL (≈ 2.46 µM) | 16 µg/mL (≈ 39.4 µM) | > 16 µg/mL | > 16 µg/mL | 4 µg/mL (≈ 9.84 µM)
C[C@H]1CN(c2nc3c(cc2F)c(=O)c(C(=O)O)cn3C2CC2)C/C(=C(/F)CN)CO1 [Compound 499, (Z)-7-[6-(2-Amino-1-fluoro-ethylidene)-(2S)-2-methyl-[1,4]oxazepan-4-yl]-1-cyclopropyl-6-fluoro-4-oxo-1,4-dihydro-[1,8]naphthyridine-3-carboxylic acid] | 8 µg/mL (≈ 19 µM) | > 16 µg/mL | > 16 µg/mL | > 16 µg/mL | > 16 µg/mL
C[C@@H]1CN(c2nc3c(cc2F)c(=O)c(C(=O)O)cn3C2CC2)C/C(=C(/F)CN)CO1 [Compound 500, (Z)-7-[6-(2-Amino-1-fluoro-ethylidene)-(2R)-2-methyl-[1,4]oxazepan-4-yl]-1-cyclopropyl-6-fluoro-4-oxo-1,4-dihydro-[1,8]naphthyridine-3-carboxylic acid] | 2 µg/mL (≈ 4.76 µM) | 16 µg/mL (≈ 38.1 µM) | > 16 µg/mL | > 16 µg/mL | > 16 µg/mL
NC/C(F)=C1\CCCN(c2cc3c(cc2F)c(=O)c(C(=O)O)cn3C2CC2)CC1 [Compound 501, (Z)-7-[4-(2-Amino-1-fluoro-ethylidene)-azepan-1-yl]-1-cyclopropyl-6-fluoro-4-oxo-1,4-dihydro-quinoline-3-carboxylic acid] | 0.25 µg/mL (≈ 0.62 µM) | 2 µg/mL (≈ 4.96 µM) | 8 µg/mL (≈ 19.8 µM) | 16 µg/mL (≈ 39.7 µM) | –
NC/C(F)=C1/CCCN(c2cc3c(cc2F)c(=O)c(C(=O)O)cn3C2CC2)CC1 [Compound 502, (E)-7-[4-(2-Amino-1-fluoro-ethylidene)-azepan-1-yl]-1-cyclopropyl-6-fluoro-4-oxo-1,4-dihydro-quinoline-3-carboxylic acid] | 0.5 µg/mL (≈ 1.24 µM) | 4 µg/mL (≈ 9.92 µM) | 16 µg/mL (≈ 39.7 µM) | > 16 µg/mL | 16 µg/mL (≈ 39.7 µM)
NC/C(F)=C1/COCCN(c2cc3c(cc2F)c(=O)c(C(=O)O)cn3C2CC2)C1 [Compound 503, (Z)-7-[6-(2-Amino-1-fluoro-ethylidene)-[1,4]oxazepan-4-yl]-1-cyclopropyl-6-fluoro-4-oxo-1,4-dihydro-quinoline-3-carboxylic acid] | 4 µg/mL (≈ 9.87 µM) | 16 µg/mL (≈ 39.5 µM) | > 16 µg/mL | > 16 µg/mL | –
NC/C(F)=C1\COCCN(c2cc3c(cc2F)c(=O)c(C(=O)O)cn3C2CC2)C1 [Compound 504, (E)-7-[6-(2-Amino-1-fluoro-ethylidene)-[1,4]oxazepan-4-yl]-1-cyclopropyl-6-fluoro-4-oxo-1,4-dihydro-quinoline-3-carboxylic acid] | 2 µg/mL (≈ 4.93 µM) | 16 µg/mL (≈ 39.5 µM) | 8 µg/mL (≈ 19.7 µM) | 4 µg/mL (≈ 9.87 µM) | –
COc1c(N2CCC/C(=C(/F)CN)CC2)c(F)cc2c(=O)c(C(=O)O)cn(C3CC3)c12 [Compound 505, (Z)-7-[4-(2-Amino-1-fluoro-ethylidene)-azepan-1-yl]-1-cyclopropyl-6-fluoro-8-methoxy-4-oxo-1,4-dihydro-quinoline-3-carboxylic acid] | 0.12 µg/mL (≈ 0.277 µM) | 0.25 µg/mL (≈ 0.577 µM) | 4 µg/mL (≈ 9.23 µM) | 1 µg/mL (≈ 2.31 µM) | –
COc1c(N2CCC/C(=C(\F)CN)CC2)c(F)cc2c(=O)c(C(=O)O)cn(C3CC3)c12 [Compound 506, (E)-7-[4-(2-Amino-1-fluoro-ethylidene)-azepan-1-yl]-1-cyclopropyl-6-fluoro-8-methoxy-4-oxo-1,4-dihydro-quinoline-3-carboxylic acid] | ≤ 0.015 µg/mL | 0.25 µg/mL (≈ 0.577 µM) | 2 µg/mL (≈ 4.61 µM) | – | –
